{"source": "patent US20240237643A1", "about": "“COMPOSITIONS WITH VIRUCIDAL AND/OR ANTIVIRAL ACTIVITY” (priority 2020, published 2024)", "type_in_all_cases": "cell-based", "key": {"Coronavirus (MHV-3)": {"system": "Coronavirus (MHV-3)", "test": "Virucidal activity, quantitative suspension test DIN EN 14476", "method": "(§1) Testing was conducted over a period of 1 to 10 minutes. Activity against the following viruses was determined: • Coronavirus (MHV-3) • Influenza virus (H1N1) • Herpes simplex virus (HV) • Human respiratory syncytial virus (HRSV)\n(§2) In this context (+) means that more than 99.99% of all viruses were inactivated; this is equivalent to a reduction factor of 10,000."}, "[1]": {"system": "Herpes simplex virus (HV)", "test": "Virucidal activity, quantitative suspension test DIN EN 14476"}, "[2]": {"system": "Human respiratory syncytial virus (HRSV)", "test": "Virucidal activity, quantitative suspension test DIN EN 14476"}, "Influenza virus (H1N1)": {"system": "Influenza virus (H1N1)", "test": "Virucidal activity, quantitative suspension test DIN EN 14476"}, "[3]": {"system": "all virus types (MHV-3, H1N1, HV, HRSV)", "test": "Virucidal activity DIN EN 14476, summary over all virus types", "details": "concentration of 0.1 wt.-percent", "method": "as §1, §2"}, "[4]": {"details": "0.1 wt.-percent in water, 1 min"}, "[5]": {"details": "0.1 wt.-percent in water, 10 min"}, "[6]": {"details": "10 wt.-percent in water, 10 min"}}, "data": [{"molecule": "CC(C)=CCCC(C)=CCCC(C)=CCO", "note": "[3,7,11-trimethyl-2,6,10-dodecantrien-1-ol]", "values": [{"measurement": "Virucidal activity MHV-3", "setting": "Coronavirus (MHV-3); [4]", "result": "(+) ((+) means that more than 99.99% of all viruses were inactivated; this is equivalent to a reduction factor of 10,000)"}, {"measurement": "Virucidal activity MHV-3", "setting": "Coronavirus (MHV-3); [5]", "result": "(+) ((+) means that more than 99.99% of all viruses were inactivated; this is equivalent to a reduction factor of 10,000)"}, {"measurement": "Virucidal activity MHV-3", "setting": "Coronavirus (MHV-3); 1 wt.-percent in water, 1 min", "result": "(+) ((+) means that more than 99.99% of all viruses were inactivated; this is equivalent to a reduction factor of 10,000)"}, {"measurement": "Virucidal activity MHV-3", "setting": "Coronavirus (MHV-3); 1 wt.-percent in water, 10 min", "result": "(+) ((+) means that more than 99.99% of all viruses were inactivated; this is equivalent to a reduction factor of 10,000)"}, {"measurement": "Virucidal activity MHV-3", "setting": "Coronavirus (MHV-3); 10 wt.-percent in water, 1 min", "result": "(+) ((+) means that more than 99.99% of all viruses were inactivated; this is equivalent to a reduction factor of 10,000)"}, {"measurement": "Virucidal activity MHV-3", "setting": "Coronavirus (MHV-3); [6]", "result": "(+) ((+) means that more than 99.99% of all viruses were inactivated; this is equivalent to a reduction factor of 10,000)"}, {"measurement": "Virucidal activity HV", "setting": "[1]; [4]", "result": "(+) ((+) means that more than 99.99% of all viruses were inactivated; this is equivalent to a reduction factor of 10,000)"}, {"measurement": "Virucidal activity HV", "setting": "[1]; [5]", "result": "(+) ((+) means that more than 99.99% of all viruses were inactivated; this is equivalent to a reduction factor of 10,000)"}, {"measurement": "Virucidal activity HV", "setting": "[1]; 1 wt.-percent in water, 1 min", "result": "(+) ((+) means that more than 99.99% of all viruses were inactivated; this is equivalent to a reduction factor of 10,000)"}, {"measurement": "Virucidal activity HV", "setting": "[1]; 1 wt.-percent in water, 10 min", "result": "(+) ((+) means that more than 99.99% of all viruses were inactivated; this is equivalent to a reduction factor of 10,000)"}, {"measurement": "Virucidal activity HV", "setting": "[1]; 10 wt.-percent in water, 1 min", "result": "(+) ((+) means that more than 99.99% of all viruses were inactivated; this is equivalent to a reduction factor of 10,000)"}, {"measurement": "Virucidal activity HV", "setting": "[1]; [6]", "result": "(+) ((+) means that more than 99.99% of all viruses were inactivated; this is equivalent to a reduction factor of 10,000)"}, {"measurement": "Virucidal activity HRSV", "setting": "[2]; [4]", "result": "(+) ((+) means that more than 99.99% of all viruses were inactivated; this is equivalent to a reduction factor of 10,000)"}, {"measurement": "Virucidal activity HRSV", "setting": "[2]; [5]", "result": "(+) ((+) means that more than 99.99% of all viruses were inactivated; this is equivalent to a reduction factor of 10,000)"}, {"measurement": "Virucidal activity HRSV", "setting": "[2]; 1 wt.-percent in water, 1 min", "result": "(+) ((+) means that more than 99.99% of all viruses were inactivated; this is equivalent to a reduction factor of 10,000)"}, {"measurement": "Virucidal activity HRSV", "setting": "[2]; 1 wt.-percent in water, 10 min", "result": "(+) ((+) means that more than 99.99% of all viruses were inactivated; this is equivalent to a reduction factor of 10,000)"}, {"measurement": "Virucidal activity HRSV", "setting": "[2]; 10 wt.-percent in water, 1 min", "result": "(+) ((+) means that more than 99.99% of all viruses were inactivated; this is equivalent to a reduction factor of 10,000)"}, {"measurement": "Virucidal activity HRSV", "setting": "[2]; [6]", "result": "(+) ((+) means that more than 99.99% of all viruses were inactivated; this is equivalent to a reduction factor of 10,000)"}, {"measurement": "Virucidal activity H1N1", "setting": "Influenza virus (H1N1); [4]", "result": "(+) ((+) means that more than 99.99% of all viruses were inactivated; this is equivalent to a reduction factor of 10,000)"}, {"measurement": "Virucidal activity H1N1", "setting": "Influenza virus (H1N1); [5]", "result": "(+) ((+) means that more than 99.99% of all viruses were inactivated; this is equivalent to a reduction factor of 10,000)"}, {"measurement": "Virucidal activity H1N1", "setting": "Influenza virus (H1N1); 1 wt.-percent in water, 1 min", "result": "(+) ((+) means that more than 99.99% of all viruses were inactivated; this is equivalent to a reduction factor of 10,000)"}, {"measurement": "Virucidal activity H1N1", "setting": "Influenza virus (H1N1); 1 wt.-percent in water, 10 min", "result": "(+) ((+) means that more than 99.99% of all viruses were inactivated; this is equivalent to a reduction factor of 10,000)"}, {"measurement": "Virucidal activity H1N1", "setting": "Influenza virus (H1N1); 10 wt.-percent in water, 1 min", "result": "(+) ((+) means that more than 99.99% of all viruses were inactivated; this is equivalent to a reduction factor of 10,000)"}, {"measurement": "Virucidal activity H1N1", "setting": "Influenza virus (H1N1); [6]", "result": "(+) ((+) means that more than 99.99% of all viruses were inactivated; this is equivalent to a reduction factor of 10,000)"}, {"measurement": "reduction factor", "setting": "[3]", "result": "10,000"}]}]}
